Data on twelve compounds can be found in patent US11578073B2, “Xanthine analogs as potent anti-West Nile viral agents” (Southern Research Institute, priority 2019, dated 2023).

For one data set, the system named is West Nile virus. Put plainly: anti-West Nile virus activity of xanthine analogs in HEK293 cells. Type of data set: cell-based. Particulars: HEK293, read-out: EC90 (effective concentration to inhibit 90% of virus).
Data set [1] in a line: cell viability assay (cytotoxicity) in HEK293 cells. Type of data set: cell-based. To be noted: human, read-out: CC50 (50% cytotoxicity concentration).

`Cn1c(=O)[nH]c(=O)c2c1nc(N1CCN(Cc3ccc(C(C)(C)C)nc3)CC1)n2Cc1ccccc1F` [Compound 38, 8-(4-((6-(tert-Butyl)pyridin-3-yl)methyl)piperazin-1-yl)-7-(2-fluorobenzyl)-3-methyl-3,7-dihydro-1H-purine-2,6-dione]: the EC90 with West Nile virus was 16 µM. For the same compound, the CC50 in data set [1] was 34.2 µM.

`Cn1c(=O)[nH]c(=O)c2c1nc(N1CCN(Cc3ccc(C(C)(C)C#N)cc3)CC1)n2Cc1ccccc1F` [Compound 39, 2-(4-((4-(7-(2-Fluorobenzyl)-3-methyl-2,6-dioxo-2,3,6,7-tetrahydro-1H-purin-8-yl)piperazin-1-yl)methyl)phenyl)-2-methylpropanenitrile]: the EC90 in the data set with West Nile virus was more than 30 µM. Further, the CC50 in data set [1] is more than 40 µM.

Turning to `Cn1c(=O)[nH]c(=O)c2c1nc(N1CCN(Cc3ccc(C(C)(C)O)cc3)CC1)n2Cc1ccccc1F` [Compound 40, 7-(2-fluorobenzyl)-8-(4-(4-(2-hydroxypropan-2-yl)benzyl)piperazin-1-yl)-3-methyl-3,7-dihydro-1H-purine-2,6-dione], the EC90 in the data set with West Nile virus was more than 10 µM. The CC50 in data set [1] was more than 40 µM.

As to `CC(C)c1ccc(CN2CCN(c3nc4c(c(=O)[nH]c(=O)n4C)n3Cc3ccccc3F)CC2)cc1` [Compound 41, 7-(2-Fluorobenzyl)-8-(4-(4-isopropylbenzyl)piperazin-1-yl)-3-methyl-3,7-dihydro-1H-purine-2,6-dione], the EC90 with West Nile virus came to 1.1 µM. In addition, in data set [1], the CC50 was found to be 24 µM.

For the compound `C=C(C)c1ccc(CN2CCN(c3nc4c(c(=O)[nH]c(=O)n4C)n3Cc3ccccc3F)CC2)cc1` [Compound 42, 7-(2-Fluorobenzyl)-3-methyl-8-(4-(4-(prop-1-en-2-yl)benzyl)piperazin-1-yl)-3,7-dihydro-1H-purine-2,6-dione], in the data set on West Nile virus, the EC90 was found to be 2.1 µM. Moreover, the CC50 in data set [1] is 22 µM.

Regarding `Cc1ccc(C)c(C(=O)N2CCN(c3nc4c(c(=O)[nH]c(=O)n4C)n3Cc3ccccc3F)CC2)c1` [Compound 43, 8-(4-(2,5-Dimethylbenzoyl)piperazin-1-yl)-7-(2-fluorobenzyl)-3-methyl-3,7-dihydro-1H-purine-2,6-dione], the EC90 in the data set on West Nile virus was more than 10 µM. Moreover, the CC50 in data set [1] was more than 40 µM.

Consider `Cn1c(=O)[nH]c(=O)c2c1nc(N1CCN(C(=O)c3ccc(C(C)(C)C)cc3)CC1)n2Cc1ccccc1F` [Compound 44, 8-(4-(4-(tert-Butyl)benzoyl)piperazin-1-yl)-7-(2-fluorobenzyl)-3-methyl-3,7-dihydro-1H-purine-2,6-dione], for which, in the data set on West Nile virus, the EC90 was found to be 8.8 µM. The CC50 in data set [1] was more than 30 µM.

As for `Cn1c(=O)[nH]c(=O)c2c1nc(N1CCN(C(=O)Cc3ccc(C(C)(C)C)cc3)CC1)n2Cc1ccccc1F` [Compound 50, 8-(4-(2-(4-(tert-Butyl)phenyl)acetyl)piperazin-1-yl)-7-(2-fluorobenzyl)-3-methyl-3,7-dihydro-1H-purine-2,6-dione], in the data set on West Nile virus, the EC90 is 3.7 µM. Moreover, in data set [1], the CC50 was more than 30 µM.

Turning to `Cn1c(=O)[nH]c(=O)c2c1nc(N1CCC(C)(C)CC1)n2Cc1ccccc1F` [Compound 52, 8-(4,4-Dimethylpiperidin-1-yl)-7-(2-fluorobenzyl)-3-methyl-3,7-dihydro-1H-purine-2,6-dione], the EC90 with West Nile virus stood at 3.9 µM. Further, in data set [1], the CC50 is more than 30 µM.

Consider `Cn1c(=O)[nH]c(=O)c2c1nc(N1CCC(c3ccccc3)CC1)n2Cc1ccccc1F` [Compound 56, 7-(2-Fluorobenzyl)-3-methyl-8-(4-phenylpiperidin-1-yl)-3,7-dihydro-1H-purine-2,6-dione], for which the EC90 in the data set with West Nile virus came out at 2.4 µM. Also, the CC50 in data set [1] stood at 10.7 µM.

`Cn1c(=O)[nH]c(=O)c2c1nc(N1CCC(c3cccc(F)c3)CC1)n2Cc1ccccc1F` [Compound 57, 7-(2-Fluorobenzyl)-8-(4-(3-fluorophenyl)piperidin-1-yl)-3-methyl-3,7-dihydro-1H-purine-2,6-dione]: in the data set on West Nile virus, the EC90 amounted to 4.4 µM. Further, the CC50 in data set [1] is more than 30 µM.

With `CC(C)(C)c1ccc(CN2CCN(c3nc4[nH]c(=O)[nH]c(=O)c4n3Cc3ccccc3F)CC2)cc1` [Compound 64, 8-(4-(4-(tert-butyl)benzyl)piperazin-1-yl)-7-(2-fluorobenzyl)-3,7-dihydro-1H-purine-2,6-dione], the EC90 in the data set on West Nile virus was found to be 9 µM. The CC50 in data set [1] is 10 µM.
